Results on eleven molecules are retold here after patent US12421224B2 (BIOGEN MA INC., priority 2019, dated 2025).

pIC50: −log10 of the molar value.

As usually defined, the pIC50 is the negative decadic logarithm of the IC50, by convention in mol/L.

The target of this experiment is T1, Recombinant full length human OGA enzyme (Homo sapiens, UniProt O60502).
T1 construct: Recombinant full length human OGA enzyme; purchased Origene
T1 sequence (O60502 1-916): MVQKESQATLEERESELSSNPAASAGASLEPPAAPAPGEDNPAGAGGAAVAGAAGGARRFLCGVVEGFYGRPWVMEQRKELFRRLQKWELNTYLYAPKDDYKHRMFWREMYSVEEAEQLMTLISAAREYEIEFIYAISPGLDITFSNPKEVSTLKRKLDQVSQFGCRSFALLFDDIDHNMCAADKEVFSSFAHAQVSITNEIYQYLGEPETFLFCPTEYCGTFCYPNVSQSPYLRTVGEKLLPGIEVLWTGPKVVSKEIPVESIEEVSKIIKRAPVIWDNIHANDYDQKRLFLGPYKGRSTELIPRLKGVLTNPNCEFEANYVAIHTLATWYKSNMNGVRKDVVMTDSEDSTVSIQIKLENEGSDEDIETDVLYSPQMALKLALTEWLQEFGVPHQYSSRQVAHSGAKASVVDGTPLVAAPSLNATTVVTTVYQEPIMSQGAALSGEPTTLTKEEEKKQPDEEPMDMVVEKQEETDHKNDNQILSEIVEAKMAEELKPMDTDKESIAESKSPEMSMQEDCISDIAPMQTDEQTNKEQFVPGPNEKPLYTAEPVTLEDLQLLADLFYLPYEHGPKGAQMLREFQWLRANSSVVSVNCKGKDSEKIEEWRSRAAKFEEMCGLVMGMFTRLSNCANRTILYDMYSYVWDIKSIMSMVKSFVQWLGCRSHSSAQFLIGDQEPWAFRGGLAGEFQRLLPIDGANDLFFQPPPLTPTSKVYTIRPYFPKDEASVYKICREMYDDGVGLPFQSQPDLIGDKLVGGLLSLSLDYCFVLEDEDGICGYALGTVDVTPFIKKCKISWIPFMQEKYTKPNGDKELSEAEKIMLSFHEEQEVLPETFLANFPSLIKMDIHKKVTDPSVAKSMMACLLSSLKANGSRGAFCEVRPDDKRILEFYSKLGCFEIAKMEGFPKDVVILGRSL
Kind of experiment: OGA Enzyme Inhibition Biochemical Assay. The settings on record: 1 nM OGA, 100 μM 4-MUGlcNAc (Km), pH 6.4, 90 minutes at room temperature, 10-point dose-response starting from 20 μM. Here is the method:
OGA Enzyme Inhibition Biochemical Assay
Recombinant full length human OGA enzyme was purchased from Origene. 4-MUGlCNAc substrate was purchased from Sigma. All other reagents were purchased from Sigma or Fisher. Assay buffer consists of the Mcllvaine buffer system, pH 6.4 (0.2M Na2HPO4 mixed with 0.1M citric acid) and 0.01% BSA. Reactions consist of 1 nM OGA, 100 μM 4-MUGlcNAc (Km), and compound in a final volume of 10 μl. Reactions were incubated for 90 minutes at room temperature and quenched with […] of 3M glycine, pH 10 and read on a Perkin Elmer Envision plate reader (Ex: 355 nm/Em: 460 nm). Compounds were tested with a 10-point dose-response starting from 20 μM with a 4-fold dilution. Data was fit using GraphPad Prism using a 4-parameter fit with variable slope.
Take `CC(=O)Nc1ncc(CN2C[C@H](Oc3ncc(F)cn3)[C@H]2C)s1` [Example 2-30, N-(5-(((2R,3S)-3-((5-fluoropyrimidin-2-yl)oxy)-2-methylazetidin-1-yl)methyl)thiazol-2-yl)acetamide]: the pIC50 is 6.77.
As to `CC(=O)Nc1ncc(CN2C[C@@H](Oc3ccc(C#N)cn3)[C@H]2C)s1` [Example 2-31, N-(5-(((2R,3R)-3-((5-cyanopyridin-2-yl)oxy)-2-methylazetidin-1-yl)methyl)thiazol-2-yl)acetamide], the negative logarithm of the IC50 (pIC50) was 6.36.
The same measure for `CC(=O)Nc1ncc(CN2C[C@H](Oc3ccc(C#N)cn3)[C@H]2C)s1` [Example 2-32, N-(5-(((2R,3S)-3-((5-cyanopyridin-2-yl)oxy)-2-methylazetidin-1-yl)methyl)thiazol-2-yl)acetamide]: 6.01.
On to `CC(=O)Nc1ncc(CN2C[C@H](Oc3ncc(F)cn3)[C@H]2C)s1` [Example 2-33, N-(5-(((2R,3S)-3-((5-fluoropyrimidin-2-yl)oxy)-2-methylazetidin-1-yl)methyl)thiazol-2-yl)acetamide], for which the pIC50 is 6.41.
With `CC(=O)Nc1ncc(CN2CC(NCc3cc(C)nc(C)c3)C2)s1` [Example 3-1, N-(5-((3-(((2,6-dimethylpyridin-4-yl)methyl)amino)azetidin-1-yl)methyl)thiazol-2-yl)acetamide], the pIC50 was 7.04.
For `COc1cc(CNC2CN(Cc3cnc(NC(C)=O)s3)C2)ccn1` [Example 3-2, N-(5-((3-(((2-methoxypyridin-4-yl)methyl)amino)azetidin-1-yl)methyl)thiazol-2-yl)acetamide] the value was 6.68; for `CCOc1cc(CC2CN(Cc3cnc(NC(C)=O)s3)C2)ccn1` [Example 4-1, N-(5-((3-((2-ethoxypyridin-4-yl)methyl)azetidin-1-yl)methyl)thiazol-2-yl)acetamide], 7.33.
Take `CC(=O)Nc1ncc(CN2CC(Cc3ccccc3)C2)s1` [Example 4-2, N-(5-((3-benzylazetidin-1-yl)methyl)thiazol-2-yl)acetamide]: the pIC50 was 6.24.
Regarding `CC(=O)Nc1ncc(CN2CC(c3ncc(F)cn3)C2)s1` [Example 5-1], the pIC50 is 6.46.
For the molecule `CC(=O)Nc1ncc(CN2CC(c3ncnc4sccc34)C2)s1` [Example 5-2], the pIC50 was 6.71.
With “N-(5-43-(((5-methyl-1,2,4-oxadiazol-3-yl)methyl)amino)azetidin-1-yl)methyl)thiazol-2-yl)acetamide [Example 3-3]”, the pIC50 is 6.05.
